Source: ChEMBL document CHEMBL3046147, “Synthesis and Herbicidal Activity of 1-Arylalkyl-3-pyrrolin-2-one Derivatives” (J Pestic Sci, 2000)
Activity calls are given as the source filed them.

Legend:
[1] = system: Echinochloa oryzicola; assay: Herbicidal activity against Echinochloa oryzicola grown in water-drained pot under greenhouse condition assessed as growth inhibition at 250 g /ha measured after 33 days; assay type: functional, organism-based
[2] = system: Echinochloa oryzicola; assay: Herbicidal activity against Echinochloa oryzicola grown in water-drained pot under greenhouse condition assessed as growth inhibition at 250 g /ha measured after 27 days; assay type: functional, organism-based
[3] = system: Echinochloa oryzicola; assay: Herbicidal activity against Echinochloa oryzicola grown in water-drained pot under greenhouse condition assessed as growth inhibition at 250 g /ha measured after 20 days; assay type: functional, organism-based
[4] = system: Echinochloa oryzicola; assay: Herbicidal activity against Echinochloa oryzicola grown in water-drained pot under greenhouse condition assessed as growth inhibition at 250 g /ha measured after 13 days; assay type: functional, organism-based
[5] = system: Echinochloa oryzicola; assay: Herbicidal activity against Echinochloa oryzicola grown in water-drained pot under greenhouse condition assessed as growth inhibition at 250 g /ha measured after 6 days; assay type: functional, organism-based
[6] = system: Echinochloa oryzicola; assay: Herbicidal activity against Echinochloa oryzicola grown in water-drained pot under greenhouse condition assessed as growth inhibition at 1000 g /ha measured after 42 days; assay type: functional, organism-based
[7] = system: Echinochloa oryzicola; assay: Herbicidal activity against Echinochloa oryzicola grown in water-drained pot under greenhouse condition assessed as growth inhibition at 1000 g /ha measured after 33 days; assay type: functional, organism-based
[8] = system: Echinochloa oryzicola; assay: Herbicidal activity against Echinochloa oryzicola grown in water-drained pot under greenhouse condition assessed as growth inhibition at 1000 g /ha measured after 27 days; assay type: functional, organism-based
[9] = system: Echinochloa oryzicola; assay: Herbicidal activity against Echinochloa oryzicola grown in water-drained pot under greenhouse condition assessed as growth inhibition at 1000 g /ha measured after 13 days; assay type: functional, organism-based
[10] = system: Echinochloa oryzicola; assay: Herbicidal activity against Echinochloa oryzicola grown in water-drained pot under greenhouse condition assessed as growth inhibition at 1000 g /ha measured after 20 days; assay type: functional, organism-based
[11] = system: Echinochloa oryzicola; assay: Herbicidal activity against Echinochloa oryzicola grown in water-drained pot under greenhouse condition assessed as growth inhibition at 1000 g /ha measured after 6 days; assay type: functional, organism-based
[12] = system: Echinochloa oryzicola; assay: Herbicidal activity against Echinochloa oryzicola grown in water-drained pot under greenhouse condition assessed as growth inhibition at 250 g /ha measured after 42 days; assay type: functional, organism-based
[13] = system: Echinochloa oryzicola; assay: Herbicidal activity against Echinochloa oryzicola grown in water-drained pot under greenhouse condition assessed as time duration of residual effect at 1000 g /ha; assay type: functional
[14] = system: Echinochloa oryzicola; assay: Herbicidal activity against Echinochloa oryzicola grown in water-drained pot under greenhouse condition assessed as time duration of residual effect at 250 g /ha; assay type: functional
[15] = system: Echinochloa oryzicola; assay: Herbicidal activity against Echinochloa oryzicola under greenhouse condition assessed as time duration of residual effect at 250 g /ha; assay type: functional
[16] = system: Echinochloa oryzicola; assay: Herbicidal activity against Echinochloa oryzicola under greenhouse condition assessed as time duration of residual effect at 1000 g /ha; assay type: functional
[17] = system: Echinochloa oryzicola; assay: Herbicidal activity against Echinochloa oryzicola under greenhouse condition assessed as growth inhibition at 1000 g /ha measured after 42 days; assay type: functional, organism-based
[18] = system: Echinochloa oryzicola; assay: Herbicidal activity against Echinochloa oryzicola under greenhouse condition assessed as growth inhibition at 1000 g /ha measured after 33 days; assay type: functional, organism-based
[19] = system: Echinochloa oryzicola; assay: Herbicidal activity against Echinochloa oryzicola under greenhouse condition assessed as growth inhibition at 1000 g /ha measured after 27 days; assay type: functional, organism-based
[20] = system: Echinochloa oryzicola; assay: Herbicidal activity against Echinochloa oryzicola under greenhouse condition assessed as growth inhibition at 1000 g /ha measured after 20 days; assay type: functional, organism-based
[21] = system: Echinochloa oryzicola; assay: Herbicidal activity against Echinochloa oryzicola under greenhouse condition assessed as growth inhibition at 1000 g /ha measured after 13 days; assay type: functional, organism-based
[22] = system: Echinochloa oryzicola; assay: Herbicidal activity against Echinochloa oryzicola under greenhouse condition assessed as growth inhibition at 250 g /ha measured after 42 days; assay type: functional, organism-based
[23] = system: Echinochloa oryzicola; assay: Herbicidal activity against Echinochloa oryzicola under greenhouse condition assessed as growth inhibition at 250 g /ha measured after 27 days; assay type: functional, organism-based
[24] = system: Echinochloa oryzicola; assay: Herbicidal activity against Echinochloa oryzicola under greenhouse condition assessed as growth inhibition at 250 g /ha measured after 20 days; assay type: functional, organism-based
[25] = system: Echinochloa oryzicola; assay: Herbicidal activity against Echinochloa oryzicola under greenhouse condition assessed as growth inhibition at 250 g /ha measured after 13 days; assay type: functional, organism-based
[26] = system: Echinochloa oryzicola; assay: Herbicidal activity against Echinochloa oryzicola under greenhouse condition assessed as growth inhibition at 250 g /ha measured after 6 days; assay type: functional, organism-based
[27] = system: Echinochloa oryzicola; assay: Herbicidal activity against Echinochloa oryzicola under greenhouse condition assessed as growth inhibition at 1000 g /ha measured after 6 days; assay type: functional, organism-based
[28] = system: Echinochloa oryzicola; assay: Herbicidal activity against Echinochloa oryzicola under greenhouse condition assessed as growth inhibition at 250 g /ha measured after 33 days; assay type: functional, organism-based

CN(C(=O)COc1nc2ccccc2s1)c1ccccc1 [MEFENACET]
33 days: Time [13] | Time [16]
inactive: growth inhibition (GI) [1] | growth inhibition (GI) [2] | growth inhibition (GI) [3] | growth inhibition (GI) [12] | growth inhibition (GI) [22] | growth inhibition (GI) [23] | growth inhibition (GI) [28]
13 days: Time [14] | Time [15]
active: growth inhibition (GI) [4] | growth inhibition (GI) [5] | growth inhibition (GI) [6] | growth inhibition (GI) [7] | growth inhibition (GI) [8] | growth inhibition (GI) [9] | growth inhibition (GI) [10] | growth inhibition (GI) [11] | growth inhibition (GI) [17] | growth inhibition (GI) [18] | growth inhibition (GI) [19] | growth inhibition (GI) [20] | growth inhibition (GI) [21] | growth inhibition (GI) [24] | growth inhibition (GI) [25] | growth inhibition (GI) [26] | growth inhibition (GI) [27]
